The record followed here is ChEMBL document CHEMBL3621057, “Multicomponent Synthesis and Biological Evaluation of a Piperazine-Based Dopamine Receptor Ligand Library” (ACS Med Chem Lett, 2015).

In assay [1] the target is T1, D(2) dopamine receptor (Homo sapiens, UniProt P14416). Briefly: Displacement of [3H]spiperone from human dopamine D2L receptor expressed in CHO cells. The format is cell-based.
Assay [2] concerns the target D(3) dopamine receptor (Homo sapiens, UniProt P35462). Briefly: Displacement of [3H]spiperone from human dopamine D3 receptor expressed in CHO cells. In kind it is cell-based.
Assay [3] has as its target D(1B) dopamine receptor (Homo sapiens, UniProt P21918). Briefly: Displacement of [3H]SCH23390 from human dopamine D5 receptor expressed in HEK cells. The format is cell-based, HEK293.
Assay [4] has as its target T1, D(2) dopamine receptor. Briefly: Displacement of [3H]spiperone from human dopamine D2S receptor expressed in CHO cells. The format is cell-based.
For assay [5], the target named is D(1A) dopamine receptor (Homo sapiens, UniProt P21728). Briefly: Displacement of [3H]SCH23390 from human dopamine D1 receptor expressed in HEK cells. In kind it is cell-based, HEK293.
Assay [6] has as its target T1, D(2) dopamine receptor. Briefly: Antagonist activity at human D2S receptor transfected in HEK293T cells assessed as forskolin-induced cAMP accumulation by BRET assay. The format is functional, cell-based. As to conditions: HEK-293T.
The target of assay [7] is T2, D(4) dopamine receptor (Homo sapiens, UniProt P21917).
T2 sequence (P21917 whole entry): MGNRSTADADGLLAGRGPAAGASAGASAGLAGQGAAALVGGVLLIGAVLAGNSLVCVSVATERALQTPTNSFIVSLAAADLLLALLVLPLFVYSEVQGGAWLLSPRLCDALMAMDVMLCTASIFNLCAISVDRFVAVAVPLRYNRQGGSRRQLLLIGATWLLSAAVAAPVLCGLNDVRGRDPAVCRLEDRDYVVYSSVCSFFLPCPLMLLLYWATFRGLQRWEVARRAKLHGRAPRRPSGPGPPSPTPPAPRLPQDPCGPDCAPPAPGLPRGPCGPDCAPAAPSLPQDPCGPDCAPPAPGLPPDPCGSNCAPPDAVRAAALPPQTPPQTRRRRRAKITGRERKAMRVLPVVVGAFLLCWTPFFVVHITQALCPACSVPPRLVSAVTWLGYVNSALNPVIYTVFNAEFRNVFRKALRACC
Briefly: Displacement of [3H]spiperone from human dopamine D4 receptor expressed in CHO cells. The format is cell-based.

Each structure is given as a SMILES string. The source made the active and inactive calls. The calls are words filed in the database; no cut-off is given here.

Chain of D(3) dopamine receptor (P35462 whole entry): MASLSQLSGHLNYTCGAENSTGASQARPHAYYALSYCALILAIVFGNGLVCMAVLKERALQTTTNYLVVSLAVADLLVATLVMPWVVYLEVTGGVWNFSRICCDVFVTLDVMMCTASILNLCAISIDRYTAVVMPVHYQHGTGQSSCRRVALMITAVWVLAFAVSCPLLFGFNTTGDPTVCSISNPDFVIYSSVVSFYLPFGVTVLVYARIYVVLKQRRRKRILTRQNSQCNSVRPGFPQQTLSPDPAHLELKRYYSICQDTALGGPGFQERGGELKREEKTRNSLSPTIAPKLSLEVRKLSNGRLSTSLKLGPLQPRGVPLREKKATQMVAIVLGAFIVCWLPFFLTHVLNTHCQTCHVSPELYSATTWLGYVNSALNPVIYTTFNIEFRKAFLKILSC
T1 sequence (P14416 whole entry): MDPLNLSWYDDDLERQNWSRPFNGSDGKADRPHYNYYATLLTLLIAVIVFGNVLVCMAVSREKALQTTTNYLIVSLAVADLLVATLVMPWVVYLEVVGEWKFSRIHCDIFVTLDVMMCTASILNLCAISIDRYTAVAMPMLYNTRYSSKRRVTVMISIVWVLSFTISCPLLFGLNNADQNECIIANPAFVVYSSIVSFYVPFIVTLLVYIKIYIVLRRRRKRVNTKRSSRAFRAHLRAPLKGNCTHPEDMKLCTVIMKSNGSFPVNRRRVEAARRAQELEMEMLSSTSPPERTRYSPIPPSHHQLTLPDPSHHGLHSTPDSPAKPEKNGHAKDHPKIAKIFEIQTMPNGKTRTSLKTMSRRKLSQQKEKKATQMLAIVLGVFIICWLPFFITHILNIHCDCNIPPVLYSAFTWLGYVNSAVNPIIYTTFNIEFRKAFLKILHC
Chain of D(1A) dopamine receptor (P21728 whole entry): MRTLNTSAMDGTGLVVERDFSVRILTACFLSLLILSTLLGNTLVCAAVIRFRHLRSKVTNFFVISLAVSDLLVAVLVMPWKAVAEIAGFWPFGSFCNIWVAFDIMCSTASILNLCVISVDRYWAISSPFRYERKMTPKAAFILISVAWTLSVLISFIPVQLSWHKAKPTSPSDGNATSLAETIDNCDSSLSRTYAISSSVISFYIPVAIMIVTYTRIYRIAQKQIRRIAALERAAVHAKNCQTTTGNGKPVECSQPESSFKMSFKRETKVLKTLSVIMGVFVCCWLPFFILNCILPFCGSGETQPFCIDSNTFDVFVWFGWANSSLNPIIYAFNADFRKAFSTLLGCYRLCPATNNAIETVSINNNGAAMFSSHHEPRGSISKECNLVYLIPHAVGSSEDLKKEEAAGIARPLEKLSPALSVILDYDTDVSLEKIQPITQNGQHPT
Chain of D(1B) dopamine receptor (P21918 whole entry): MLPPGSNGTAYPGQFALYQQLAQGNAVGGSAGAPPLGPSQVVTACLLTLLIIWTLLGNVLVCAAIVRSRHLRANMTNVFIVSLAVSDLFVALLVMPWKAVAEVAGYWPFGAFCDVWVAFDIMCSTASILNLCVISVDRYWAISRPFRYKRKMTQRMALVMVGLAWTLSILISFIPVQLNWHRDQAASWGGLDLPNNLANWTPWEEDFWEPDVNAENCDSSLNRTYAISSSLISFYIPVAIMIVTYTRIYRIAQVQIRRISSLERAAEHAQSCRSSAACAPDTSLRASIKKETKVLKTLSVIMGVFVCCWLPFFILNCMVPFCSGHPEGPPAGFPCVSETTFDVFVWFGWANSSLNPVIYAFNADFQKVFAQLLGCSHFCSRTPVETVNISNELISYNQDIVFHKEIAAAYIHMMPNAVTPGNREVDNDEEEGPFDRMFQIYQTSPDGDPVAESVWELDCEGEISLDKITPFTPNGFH

In the case of `COc1ccc(NCCN2CCN(CCc3c[nH]c4ccccc34)CC2)cc1`, the Ki in assay [1] is 430 nM; in assay [2], 620 nM.

`Brc1ccc(CNCCN2CCN(Cc3cc4ccccc4[nH]3)CC2)cc1`: the Ki amounted to 5200 nM in assay [1] and 1800 nM in assay [2].

Consider `COc1ccc(NCCN2CCN(Cc3cc4ccccc4[nH]3)CC2)cc1`, for which the Ki in assay [1] is 7500 nM; in assay [2] it was 18000 nM.

As to `CCCN(CCN1CCN(Cc2cc3ccccc3[nH]2)CC1)c1ccc(OC)cc1`, the results for the Ki in assay [1] and in assay [2] were 520 nM and 1300 nM, respectively.

With `CCCN(CCN1CCN(Cc2cc3ccccc3[nH]2)CC1)c1ccc(Br)cc1`, the Ki in assay [1] was found to be 220 nM; in assay [2], 600 nM.

As for `COc1ccc(CNCCN2CCN(Cc3cc4ccccc4[nH]3)CC2)cc1`, the Ki in assay [1] turned out to be 4000 nM; in assay [2], 4300 nM.

As for `Brc1ccc(NCCN2CCN(CCc3c[nH]c4ccccc34)CC2)cc1`, the Ki in assay [3] was 3600 nM; in assay [1] it was 53 nM; in assay [4], 48 nM; in assay [2] it was 200 nM; in assay [5], 480 nM; in assay [7], 20 nM. Also, the result in assay [6] was Active.

For the compound `CCCN(CCN1CCN(CCc2c[nH]c3ccccc23)CC1)c1ccc(Br)cc1`, the Ki in assay [3] was 1300 nM; in assay [1], 58 nM; in assay [4] it was 51 nM; in assay [2], 89 nM; in assay [5] it was 250 nM; in assay [7] it was 0.72 nM. Besides, the outcome in assay [6] was Active.

Turning to `CCCN(CCN1CCN(CCc2c[nH]c3ccccc23)CC1)c1ccc(OC)cc1`, the Ki in assay [1] turned out to be 120 nM; in assay [2] it was 280 nM.

`CCCN(CCN1CCN(Cc2cc3ccccc3[nH]2)CC1)Cc1ccc(OC)cc1`: the Ki in assay [1] stood at 4100 nM; in assay [2], 4600 nM.

On to `CCCN(CCN1CCN(Cc2cc3ccccc3[nH]2)CC1)Cc1ccc(Br)cc1`, for which the Ki was determined as 920 nM in assay [1] and 930 nM in assay [2].

`Brc1ccc(NCCN2CCN(Cc3cc4ccccc4[nH]3)CC2)cc1`: the Ki in assay [1] stood at 920 nM; in assay [2], 2300 nM.
